Test [1] has as its target T1, Des1 (Homo sapiens, UniProt O15121).
T1 sequence (O15121 1-323): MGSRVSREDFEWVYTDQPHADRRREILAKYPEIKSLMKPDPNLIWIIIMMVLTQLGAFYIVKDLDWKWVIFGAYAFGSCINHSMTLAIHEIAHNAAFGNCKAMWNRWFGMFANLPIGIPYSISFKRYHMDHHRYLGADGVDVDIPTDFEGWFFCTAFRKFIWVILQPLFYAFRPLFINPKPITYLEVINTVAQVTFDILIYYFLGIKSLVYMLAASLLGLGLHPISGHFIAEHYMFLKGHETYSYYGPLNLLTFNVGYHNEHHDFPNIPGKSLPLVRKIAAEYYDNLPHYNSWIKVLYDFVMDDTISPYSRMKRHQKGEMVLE
As to the kind of experiment: Jurkat T cell measurement of conversion of dihydroceramide to ceramide (Des1 activity, LC-MS/MS of NBD-C6-ceramide). The class given is cell-based. The note with it: Jurkat clone E6-1 cells; for inhibition at 0.5 µM: 0.5 uM compound, read-out: Des1 % Inhib (0.5 uM). Set-up: endogenous in cells; host or cells: Jurkat clone E6-1. As to the method: (§1) Jurkat T Cell Measurement of Conversion of Dihydroceramide to Ceramide
(§2) Jurkat clone E6-1 cells were grown and then seeded at 10^6 cells/mL in a 96-well plate (400 μL in each well. The cells were administered 100 μL of cell culture media containing 50-μM NBD-C6-dihydroceramide (Des1 substrate), affording a final concentration of substrate of 10 μM. The cells were incubated with substrate at 4° C. for 30 minutes. Following the incubation at 4° C., the cell suspension was centrifuged at 1200 rpm for 3 minutes, and the cell pellet is resuspended in 400 μL of fresh media containing various concentrations of either fenretinide (known Des1 inhibitor control compound) or test article. The final concentrations of control compound and test compounds were tested in a range from 0-10 μM. The cells and compounds were incubated at 37° C. for 3 hours. Following the 3-hour incubation, the plate was centrifuged at 2500 g for 3 minutes at 4° C., followed by collection and transfer of 200 μL of the supernatant to a new 96-well plate with 300 μL of methanol an containing appropriate internal standards for liquid chromatography/tandem mass spectroscopy (LC/MS/MS) analysis (internal standard: 500 nM labetalol and 100 nM alprazolam). The samples were vortexed for 2 minutes followed by centrifugation at 3,220 g for 20 minutes. Following centrifugation, 200 μL of the supernatant was transferred to a new 96-well plate for LC-MS/MS analysis to determine the amount of NBD-C6-ceramide (Des1 product) produced. The assay was typically performed in duplicate. A reduction of at least 30% compared to vehicle control (0 μM test article) is indicative of an active compound, and a reduction of 75% compared to vehicle control is preferred.

For test [2], the system named is CFTR-KO mice. The following applies: Guilbault et al. 2008, 2009, cited from earlier work.
For test [3], the system named is insulin-stimulated Akt phosphorylation in C2C12 myotubes. As to the kind of experiment: C2C12 myotube assay of insulin-stimulated phosphorylation of Akt. The note with it: 0.75 mM BSA-conjugated palmitate 16 hours, insulin 100 nM 10 minutes; read-out: half-maximal effective concentration (EC50) for increasing insulin-stimulated Akt phosphorylation in the presence of palmitate. The class given is cell-based. As to the method:
C2C12 Myotube Assay of Insulin-Stimulated Phosphorylation of Akt:
C2C12 myotubes are treated with 0.75 mM BSA-conjugated palmitate for 16 hours in the presence or absence of 7 non-zero concentrations of fenretinide (Des1 inhibitor control compound) or various test articles, followed by a 10-minute stimulation with insulin (100 nM). Cells are subsequently harvested and boiled in reducing SDS sample buffer and subjected to SDS-PAGE followed by detection of phosphorylated Akt, total Akt, and a suitable loading control (e.g. actin or GAPDH) by western blot using fluorescently-conjugated secondary antibodies. Band intensities are quantitated by an Odyssey imaging system (Li—COR), but could also be performed using HRP-conjugated secondary antibodies/enhanced chemiluminescence or by colorimetric readout.
Moreover, while currently contemplated for SDS-PAGE/immunoblot format, this assay could be adapted to ELISA or in-cell western (immunocytochemistry) formats for higher throughput testing of compounds. An increase of 30% compared to vehicle control (0 μM test article) is indicative of an active compound, and an increase of 50% compared to control is preferred. […] Des1 inhibitors disclosed herein are expected to be effective in this assay.

Test [4] concerns the target T1, Des1. As to the kind of experiment: Jurkat T cell measurement of conversion of dihydroceramide to ceramide (Des1 activity, LC-MS/MS of NBD-C6-ceramide). The class given is cell-based. Set-up: Jurkat clone E6-1 cells were grown and then seeded at 10^6 cells/mL in a 96-well plate; endogenous in cells; host or cells: Jurkat clone E6-1. The note with it: 0.5 uM compound; Jurkat clone E6-1 cells, 10 μM NBD-C6-dihydroceramide, 3 hours at 37° C.; read-out: Des1 % Inhib (0.5 uM). As to the method: as §1
as §2, with “Following centrifugation, 200 μL of the supernatant was transferred to a new 96-well plate for LC-MS/MS analysis to determine the amount of NBD-C6-ceramide (Des1 product) produced. The assay was typically performed in duplicate. A reduction of at least 30% compared to vehicle control (0 μM test article) is indicative of an active compound, and a reduction of 75% compared to vehicle control is preferred.” left out

Where [5] appears, read: 10 μM NBD-C6-dihydroceramide, 3 hours at 37° C.
Where [6] appears, read: 10 μM NBD-C6-dihydroceramide, 3 hours at 37° C., read-out: Des1 IC50.

Read-outs that look alike come from different tables or passages of the source.

`CC1=C(/C=C/C(C)=C/C=C/C(C)=C/C(=O)Nc2ccc(O)cc2)C(C)(C)CCC1` [fenretinide]: the IC50 in test [1] (read-out: half-maximal inhibitory concentration (IC50)) is 0.1 to 0.25 µM. The “susceptibility to infection with Pseudomonas aeruginosa” value in test [2] (CFTR-KO mice) is reported as “reduce susceptibility to infection”. Besides, the “ratio of lung arachidonic acid (AA) to docosahexaenoic acid (DHA)” value in test [2] (lungs of CFTR-KO mice) is reported as “normalize this ratio”. The EC50 in test [3] stood at 0.6 µM.
For the compound `O=C(Nc1ccc(O)cn1)OC1CCN(c2ccc(Cl)cc2Cl)CC1` [Example 58, 1-(2,4-dichlorophenyl)piperidin-4-yl N-(5-hydroxypyridin-2-yl)carbamate], the inhibition at 0.5 µM in test [1] (setting [5]) is 96.8%. Besides, the IC50 in test [1] (setting [6]) was 0.004 µM.
For `O=C(Nc1ccc(O)cn1)OC1CCN(c2ccccn2)CC1` [Example 59, 1-(pyridin-2-yl)piperidin-4-yl N-(5-hydroxypyridin-2-yl)carbamate], in test [1] (setting [5]), the inhibition at 0.5 µM came out at 93.2%. The IC50 in test [1] (setting [6]) is 0.043 µM.
Taken in the same sequence, the figures for `O=S(=O)(Nc1ccc(O)cn1)C1CCN(c2ccc(C(F)(F)F)cc2)CC1` [Example 69, N-(5-hydroxypyridin-2-yl)-1-[4-(trifluoromethyl)phenyl]piperidine-4-sulfonamide] were 95% and 0.04 µM.
In the case of `CC(C)c1ccc(S(=O)(=O)Nc2ccc(O)cn2)cc1` [Example 61, N-(5-Hydroxypyridin-2-yl)-4-(propan-2-yl)benzene-1-sulfonamide], the inhibition at 0.5 µM in test [1] (setting [5]) worked out at 37.5%.
As to `O=C(Nc1ccc(O)cn1)N1CCN(Cc2ccccc2)CC1` [Example 37, 4-benzyl-N-(5-hydroxypyridin-2-yl)piperazine-1-carboxamide], in test [1] (setting [5]), the inhibition at 0.5 µM came out at 80.7%.
For the compound `O=C(Nc1ccc(O)cn1)OC1CCCCC1` [Example 42, Cyclohexyl N-(5-hydroxypyridin-2-yl)carbamate], in test [1] (setting [5]), the inhibition at 0.5 µM came out at 81.4%. Moreover, the IC50 in test [1] (setting [6]) was determined as 0.035 µM.
Taken in the same sequence, the figures for `CCCCCCNC(=O)Nc1ccc(O)cn1` [Example 40, 1-Hexyl-3-(5-hydroxypyridin-2-yl)urea] were 89.1% and 0.013 µM.
`O=C(Nc1ccc(O)cc1)N1CCN(c2ccc(F)cc2F)CC1` [Example 28, 4-(2,4-difluorophenyl)-N-(4-hydroxyphenyl)piperazine-1-carboxamide]: in test [1] (setting [5]), the inhibition at 0.5 µM turned out to be 57.8%.
As for `O=C(Nc1ccc(O)cn1)N1CCC(c2ccc(Cl)cc2)CC1` [Example 4, 4-(4-Chlorophenyl)-N-(5-hydroxypyridin-2-yl)piperidine-1-carboxamide], the inhibition at 0.5 µM in test [1] (setting [5]) was 94.3%. Further, the IC50 in test [1] (setting [6]) turned out to be 0.023 µM.
Consider `O=C(Nc1ccc(O)cn1)NC1CCOCC1` [Example 20, 3-(5-Hydroxypyridin-2-yl)-1-(oxan-4-yl)urea], for which the inhibition at 0.5 µM in test [1] (setting [5]) is 19.6%.
For `O=C(Nc1ccc(O)cn1)N1CCN(c2ccc(C(F)(F)F)cn2)CC1` [Example 18, N-(5-hydroxypyridin-2-yl)-4-[5-(trifluoromethyl)pyridin-2-yl]piperazine-1-carboxamide], the inhibition at 0.5 µM in test [1] (setting [5]) was determined as 96.6%. For the same compound, the IC50 in test [1] (setting [6]) is 0.004 µM.
Consider `O=C(Nc1ccc(O)cn1)N1CCN(c2ccc(Cl)cn2)CC1` [Example 22, 4-(5-chloropyridin-2-yl)-N-(5-hydroxypyridin-2-yl)piperazine-1-carboxamide], for which, in test [1] (setting [6]), the IC50 turned out to be 0.014 µM.
For the compound `O=S(=O)(Nc1ccc(O)cn1)N1CCN(c2ccc(F)cc2)CC1` [Example 72], the inhibition at 0.5 µM in test [4] is 50.2%.
For `O=C(OCc1ccccc1)N1CCC(S(=O)(=O)Nc2ccc(O)cn2)CC1` [Example 63, Benzyl 4-[(5-hydroxypyridin-2-yl)sulfamoyl]piperidine-1-carboxylate], in test [1] (setting [6]), the IC50 was greater than 1 µM.
On to `O=C(Oc1ccc(O)cn1)N1CCN(c2ccc(C(F)(F)F)cn2)CC1` [Example 88, 5-hydroxypyridin-2-yl 4-[5-(trifluoromethyl)pyridin-2-yl]piperazine-1-carboxylate], for which the inhibition at 0.5 µM in test [1] (setting [5]) was found to be 92.7%. Besides, the IC50 in test [1] (setting [6]) is 0.025 µM.
Taken in the same sequence, the figures for `O=S(=O)(Nc1ccc(O)cn1)N1CCN(c2ccc(C(F)(F)F)cc2)CC1` [Example 75, N-(5-hydroxypyridin-2-yl)-4-(4-(trifluoromethyl)phenyl)-piperazine-1-sulfonamide] were 91.2% and 0.062 to 0.086 µM.
For the compound `O=C(Nc1ccc(O)cn1)N1CCN(c2ccc(OC(F)(F)F)cn2)CC1` [Example 46, N-(5-hydroxypyridin-2-yl)-4-[5-(trifluoromethoxy)pyridin-2-yl]piperazine-1-carboxamide], the inhibition at 0.5 µM in test [1] (setting [5]) came out at 94.5%. The IC50 in test [1] (setting [6]) was 0.007 µM.
Regarding `CC(C)(C)c1ccc(S(=O)(=O)Nc2ccc(O)cn2)cc1` [Example 62, 4-tert-Butyl-N-(5-hydroxypyridin-2-yl)benzene-1-sulfonamide], the inhibition at 0.5 µM in test [1] (setting [5]) came to 69.4%. In addition, the IC50 in test [1] (setting [6]) stood at 0.31 µM.
As for `O=C(Nc1ccc(O)cn1)N[C@H]1CC[C@H](c2ccccc2)CC1` [Example 19, 3-(5-hydroxypyridin-2-yl)-1-[(1r,4r)-4-phenylcyclohexyl]urea], in test [1] (setting [5]), the inhibition at 0.5 µM came to 76.7%.
As for `O=C(Nc1ccc(O)cn1)N1CCC(Cc2ccccc2)CC1` [Example 8, 4-Benzyl-N-(5-hydroxypyridin-2-yl)piperidine-1-carboxamide], in test [1] (setting [5]), the inhibition at 0.5 µM came out at 94.9%. Moreover, the IC50 in test [1] (setting [6]) was 0.013 µM.
With `O=C(Nc1ccc(O)cn1)OC1CCN(c2ccc(F)cc2F)CC1` [Example 54, 1-(2,4-difluorophenyl)piperidin-4-yl N-(5-hydroxypyridin-2-yl)carbamate], the IC50 in test [1] (setting [6]) amounted to 0.005 µM.
Take `O=C(Nc1ccc(O)cc1)N1CCN(c2ccc(C(F)(F)F)cc2)CC1` [Example 30, N-(4-hydroxyphenyl)-4-[4-(trifluoromethyl)phenyl]piperazine-1-carboxamide]: the inhibition at 0.5 µM in test [1] (setting [5]) came to 89.7%. For the same compound, the IC50 in test [1] (setting [6]) worked out at 0.15 µM.
